Earlier results in patent US20210139999A1, “PROGNOSTIC AND TREATMENT RESPONSE PREDICTIVE METHOD” (Cancer Research Technology Limited, priority 2018, published 2021).

Tested on: renal cancer
Settings: 81 patients with response data, single agent arm

Atezolizumab
responders: 25%
